Drawing on ChEMBL document CHEMBL1147468, “Synthesis and anti-inflammatory effects of novel pimarane diterpenoid analogs” (Bioorg Med Chem Lett, 2004), this text covers inhibition and IC50 for 14 molecules.

Active and inactive are the calls of the source. The rule behind the calls is not given here.

For assay [1], the system named is RAW264.7. In words: In vitro inhibition of NO production at 40 uM concentration in RAW 264.7 cells. The format is functional. The following applies: Mus musculus.
Assay [2] concerns the target T1, Prostaglandin G/H synthase 2 (Ovis aries, UniProt P79208).
T1 sequence (P79208 whole entry): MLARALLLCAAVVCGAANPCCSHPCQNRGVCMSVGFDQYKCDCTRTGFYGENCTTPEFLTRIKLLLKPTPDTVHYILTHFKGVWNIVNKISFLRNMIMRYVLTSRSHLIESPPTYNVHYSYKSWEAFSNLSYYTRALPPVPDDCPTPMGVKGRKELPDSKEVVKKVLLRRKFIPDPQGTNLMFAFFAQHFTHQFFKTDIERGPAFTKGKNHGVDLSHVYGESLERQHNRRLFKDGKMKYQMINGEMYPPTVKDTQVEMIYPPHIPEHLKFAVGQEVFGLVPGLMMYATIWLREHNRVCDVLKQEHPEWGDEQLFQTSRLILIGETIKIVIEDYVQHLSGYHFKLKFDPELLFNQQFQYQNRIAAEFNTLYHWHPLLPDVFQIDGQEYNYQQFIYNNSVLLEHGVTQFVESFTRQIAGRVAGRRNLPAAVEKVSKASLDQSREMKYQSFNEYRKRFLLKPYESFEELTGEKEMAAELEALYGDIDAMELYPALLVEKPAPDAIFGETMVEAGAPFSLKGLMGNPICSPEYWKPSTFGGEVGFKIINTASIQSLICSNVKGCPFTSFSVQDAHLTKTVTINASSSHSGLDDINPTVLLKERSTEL
In words: In vitro inhibition of Prostaglandin G/H synthase 2 from sheep placental cotyledons; No activity.

In assay [3] the target is T1, Prostaglandin G/H synthase 2. Description: In vitro inhibition of Prostaglandin G/H synthase 2 from sheep placental cotyledons.
In assay [4] the test system is RAW264.7. In words: In vitro inhibition of NO production at 40 uM concentration in RAW 264.7 cells; No activity. The format is functional, cell-based. As to conditions: Mus musculus.

Turning to `C=C[C@@]1(C)CC=C2C(CCC3[C@@]2(C)CCC[C@@]3(C)/C=C/C(=O)O)C1` (stereo not given in full), in the assay on RAW264.7 [1], the inhibition (in general, how much of the control response was suppressed) at 40 µM amounted to 45.1%. Same read-out and setting: with `C=C[C@@]1(C)CC=C2C(CCC3[C@@]2(C)CCC[C@@]3(C)/C=C/C=C/C(=O)O)C1` (stereo not given in full) the figure was 96.5%; with `C=C[C@@]1(C)CC=C2C(CCC3[C@](C)(CCCCC(=O)O)CCC[C@@]23C)C1` (stereo not given in full), 99%. For the molecule `C=C[C@@]1(C)CC=C2C(CCC3[C@](C)(C(=O)NC)CCC[C@@]23C)C1` (stereo not given in full), in assay [2], the IC50 (usually the concentration that gives 50% inhibition) is on record as “Not Active”. The molecule also showed an inhibition at 40 µM with RAW264.7 [1] of 85.3%.

For `C=C[C@@]1(C)CC=C2C(CCC3[C@](C)(CCC(=O)O)CCC[C@@]23C)C1` (stereo not given in full), testing at 40 µM in the assay with RAW264.7 [1] gave an inhibition of 23%. Consider `C=C[C@@]1(C)CC=C2C(CCC3[C@](C)(C(=O)NN)CCC[C@@]23C)C1` (stereo not given in full), for which, in the assay on RAW264.7 [1], testing at 40 µM gave an inhibition of 3.4%. On the same count and under the same terms, the result for `C=C[C@@]1(C)CC=C2C(CCC3[C@](C)(C/C=C\C(=O)O)CCC[C@@]23C)C1` (stereo not given in full) reads 77.9%.

In assay [3], `C=C[C@@]1(C)CC=C2C(CCC3[C@](C)(CCC/C=C/C(=O)O)CCC[C@@]23C)C1` (stereo not given in full) returned a concentration for half-maximal inhibition (IC50) of 37.8 µM. Moreover, in the assay with RAW264.7 [1], testing at 40 µM gave an inhibition of 98.2%. On to `C=C[C@@]1(C)CC=C2C(CCC3[C@](C)(CO)CCC[C@@]23C)C1` (stereo not given in full) [ACANTHOL], for which the IC50 entry in assay [2] is “Not Active”. In the assay with RAW264.7 [1], the inhibition at 40 µM came to 84.8%.

As to `C=C[C@@]1(C)CC=C2C(CCC3[C@](C)(CC(=O)NS(=O)(=O)c4ccc(I)cc4)CCC[C@@]23C)C1` (stereo not given in full), half-maximal inhibition in assay [3] (IC50) was put at 72.2 µM. This molecule also registered an inhibition at 40 µM with RAW264.7 [1] of 94.6%. As for `C=C[C@@]1(C)CC=C2C(CCC3[C@](C)(CCCC(=O)O)CCC[C@@]23C)C1` (stereo not given in full), in the assay on RAW264.7 [1], the inhibition at 40 µM was found to be 65.2%. Regarding `C=C[C@@]1(C)CC=C2C(CCC3[C@](C)(CC(=O)O)CCC[C@@]23C)C1` (stereo not given in full), in the assay with RAW264.7 [4], the inhibition result is “inactive”. With `C=C[C@@]1(C)CC=C2C(CCC3[C@](C)(C(=O)n4ccnc4)CCC[C@@]23C)C1` (stereo not given in full), the IC50 result in assay [2] was “Not Active”. In the assay with RAW264.7 [1], this molecule returned an inhibition at 40 µM of 99%. Regarding `C=C[C@@]1(C)CC=C2C(CCC3[C@](C)(CCC(=O)NS(=O)(=O)c4ccc(I)cc4)CCC[C@@]23C)C1` (stereo not given in full), the concentration for half-maximal inhibition (IC50) in assay [3] came out at 60.7 µM. This molecule displayed an inhibition at 40 µM in the assay with RAW264.7 [1] of 99.5%.
